Measured values: patent publication US20140050778A1, “NUCLEIC ACID BINDING COMPOUNDS, METHODS OF MAKING, AND USE THEREOF” (UNIVERSITY OF ROCHESTER, priority 2010, published 2014)
Entries after “also recorded” stand apart in the source; their conditions may differ.

Tests used:
[1] = tested on: (CUG)10 RNA (SEQ ID NO: 3); test: SPR binding to immobilized biotinylated RNA
Method: (§1) SPR binding measurements were performed on a Biacore-X instrument (Biacore, Inc., Uppsala, Sweden) with two flow channels (FC1 and FC2). 5′-Biotinylated-RNA sequences, with a C6 linker separating the biotin label from the RNA (Integrated DNA Technologies Inc.) were immobilized on streptavidin (Rockland Immunochemicals) functionalized carboxylmethyl dextran coated sensor chips (CM5, G.E. Healthcare) using EDC/NHS (Advanced ChemTech) coupling chemistry. Filtered (0.2μ), degassed and autoclaved HBS-N buffer (0.01M Hepes, pH=7.4, 0.15 M NaCl) was employed as sample and as running buffer for all SPR experiments. A typical protocol for an experiment is as follows: A CM5 sensor chip was allowed to equilibrate to room temperature and then docked into the instrument. Following priming with running buffer, FC1 and FC2 were conditioned by manual injection of 20 μL aqueous NaOH (50 mM) at a flow rate of 30 μL/min. This was repeated 3 times followed by a wash command. Next, the carboxyl groups on the sensor chip surface in both flow cells were activated separately by injecting 60 μL of freshly prepared 1:1 mixture of EDC (0.4 M) and NHS (0.1 M) at a 5 μL/min flow rate followed by a wash. […] After washing, the surface was deactivated with 60 μL injection of ethanolamine (1M, pH=8.5) at 5 μL/min. The flow cells were primed, and the streptavidin surface in FC1 alone was blocked with 30 μL of biotin (20 μM in HBS-N) at 5 μL/min. The RNA (200 nM in running buffer, HBS-N) to be immobilized was unfolded by heating above its predicted melting temperature in a heated block for 2 min and then allowed to refold by cooling gradually to room temperature. The RNA was then immobilized in FC2 alone to response units ranging from 200-1000 RU using a 5 μL/min flow rate. Representative sensorgrams for the immobilization procedure is shown in FIGS. 2A-B. Two 20 μL aliquots of NaCl (0.5 M) were injected at a 30 μL/min flow rate to remove non-specifically bound RNA. The level of RNA immobilized was noted when the baseline was stable, usually after repeated buffer injection followed by a “prime” command. Binding measurements were performed by flowing various concentrations of the compounds to be analyzed over the immobilized RNA and recording the reference-subtracted (FC2−FC1) sensorgrams. For kinetic analysis, at least five sensorgrams corresponding to different concentrations of compound (usually ranging from 0.05-1 μM in HBS-N) were obtained using flow rates of either 60 μL/min or 30 μL/min. The experimental sensorgrams were globally fitted to a 1:1 binding equation (Biaevaluation software) to obtain association rates (ka) and dissociation rates ([…]) as well as equilibrium binding constants (KD). To measure the binding stoichiometry (n), the relations in equations (1-3) below were used: […]
(§2) where RUmax is the maximum resonance response unit at saturation, RURNA is the amount RU of RNA immobilized, n is the stoichiometry, MWcompound and MWRNA are molecular weights of compound and RNA respectively, and RUeq represents the resonance response at steady-state (equilibrium). The response units at equilibrium were subjected to Scatchard binding plots of (r/Cfree vs. r).
This technique allows the association and dissociation rates (ka and kd), equilibrium binding constants (KD), and the binding stoichiometry (n) to be measured in a label-free format (Liu and Wilson, “Quantitative Analysis of Small Molecule-nucleic Acid Interactions with a Biosensor Surface and Surface Plasmon Resonance Detection,” Methods Mol. Biol. 613:1-23 (2010), which is hereby incorporated by reference in its entirety).

[2] = tested on: HIV-1 FSS RNA (SEQ ID NO: 7); test: SPR binding to immobilized biotinylated RNA
Method: as §1
as §2, with “r). […]” for “r).”
SPR and fluorescence titration experiments, performed using the protocol described in Examples 3 and 4 above, except using as the target a highly conserved RNA sequence responsible for regulating the production of the Gag-Pol polyprotein via a −1 ribosomal frameshift, which occurs along a “slippery sequence” in gag-pol mRNA (SEQ ID NO: 7). This “frameshift stimulatory sequence” (or “HIV-1 FSS”) consists of an upper stemloop and a lower stem, separated by a purine bulge in the most common types of HIV (FIG. 19). For the fluorescent titration experiments, the upper stemloop of SEQ ID NO: 7 was employed. Cell uptake and toxicity studies were carried out using human fibroblasts according to Example 5 above.

mouse C2C12 myoblasts = test: Cell permeability by fluorescence microscopy; assay type: cell-based; settings: 12 h, 125 μM, intrinsic fluorescence
Method: For cell permeability studies, human fibroblasts or mouse myoblasts grown to 80% confluence were exposed to compounds for 12 hours in a 96 well tissue culture plate. After removal of the culture media (DMEM, with 10% FBS, 1% pen-strep (GIBCO)) the cells were washed twice with PBS to remove excess compounds. Cells were then imaged while in buffer under a fluorescence microscope (Olympus IX70) in the 96-well plate using a 460 nm emission filter.

HSA^LR transgenic mice = test: MBNL1-dependent splicing in mouse myotonic dystrophy model (RT-PCR, vastus muscle); assay type: in vivo; settings: 40 mg/kg intraperitoneally once per day for 5 days
Method: Mouse handling and experimental procedures were conducted in accordance with the Association for Assessment and Accreditation of Laboratory Animal Care. […] Age- and gender-matched HSA^LR mice (12-16 weeks old) were injected intraperitoneally with 40 mg/kg of compounds or saline alone once per day for 5 days. Mice were sacrificed one day after the last injection, and vastus muscle was obtained for splicing analysis. RNA extraction, cDNA preparation, and RT-PCR were performed as described previously. The PCR products were electrophoresed on agarose gels for separation, and scanned with a laser fluorimager (Typhoon, GE Healthcare). Quantitative analysis of amplified products was performed by ImageQuant software (Molecular Dynamics). Differences between two groups were evaluated by unpaired Student's t-test. A critical test of a compound's performance is its ability to function in vivo. DM1 has several well-studied mouse models (Gomes-Pereira et al., “Myotonic Dystrophy Mouse Models: Towards Rational Therapy Development,” Trends Mol. Med. 17:506-517 (2011), which is hereby incorporated by reference in its entirety). Compound activity in the HSA^LR mouse model, in which transgenic mice carry a long CTG repeat inserted into the human skeletal actin (HSA) gene in skeletal muscle (Mankodi, “Myotonic Dystrophy in Transgenic Mice Expressing an Expanded CUG Repeat,” Science 289:1769-1772 (2000), which is hereby incorporated by reference in its entirety) was examined. […] They also display aberrant splicing of genes, including Clcn1 and Atp2a1, which are hallmarks of nuclear transcript sequestration.

[3] = tested on: CUG-CAG duplex ("Duplex") (SEQ ID NO: 6); test: SPR binding to immobilized biotinylated RNA; settings: Duplex
Method: as §1, §2
(§3) The binding characteristics of compounds 3-11 were evaluated against pathogenic CUG^exp RNA and other RNA sequences by SPR. This technique allows the association and dissociation rates (ka and kd), equilibrium binding constants (KD), and the binding stoichiometry (n) to be measured in a label-free format (Liu and Wilson, “Quantitative Analysis of Small Molecule-nucleic Acid Interactions with a Biosensor Surface and Surface Plasmon Resonance Detection,” Methods Mol. Biol. 613:1-23 (2010), which is hereby incorporated by reference in its entirety). […]

[4] = tested on: (CAG)10 RNA (SEQ ID NO: 5); test: SPR binding to immobilized biotinylated RNA
Method: as §1, §2, §3

[5] = tested on: (CCUG)10 RNA (SEQ ID NO: 4); test: SPR binding to immobilized biotinylated RNA; settings: (CCUG)10
Method: as §1, §2, §3

(CUG)10 RNA = test: Fluorescence titration (benzo[g]quinoline quenching); assay type: binding; settings: (CUG)10, 1 μM compound in HBS-N
Method: The benzo[g]quinoline moiety is fluorescent, with excitation and emission maxima at 362 nm and 439 nm respectively in methanol. Fluorescence titration binding measurements were performed on a Cary Eclipse fluorescence spectrophotometer using a 10 mm path-length semimicro quartz fluorescence cell with 400 μL sample holding capacity. Absorbance measurements were carried out on a UV-Visible spectrophotometer (Shimadzu, UV-1601PC) using a 1 mL (1 cm path-length) quartz cell. Spectroscopic grade anhydrous methanol used in the measurement of relative quantum yield of the 2-ethyl benzo[g]quinoline carboxylic acid was purchased from Alfa Aesar and was used without further purification. For these measurements, known procedures were used (Lee and Grissom, “Design, Synthesis, and Characterization of Fluorescent Cobalamin Analogues with High Quantum Efficiencies,” Org. Lett. 11:2499-2502 (2009); Joseph R. Lakowicz, Principles of Fluorescence Spectroscopy, 2nd edition (Kluwer Academic/Plenum Publishers, 1999), which are hereby incorporated by reference in their entirety). Briefly, RNA (10 μM stock) in HBS-N buffer was titrated into a solution of 1 μM compound in HBS-N. After each addition of RNA, ten minutes were allowed for equilibration before recording the change in fluorescence at 468.5 nm. Fluorescence units (“FU”) were then corrected for dilution and the FU after each addition was subtracted from the FU at zero RNA concentration to give AFU. Following saturation, AFU was plotted against RNA concentration using Origin 7 (OriginLab, Inc.), and fitted to a 1:1 Langmuir binding model to obtain apparent dissociation constants (Kn). […]
Selected equilibrium affinities for (CUG)10 were confirmed by fluorescence titration. The quantum yield of the ethylbenzo[g]quinoline carboxylic acid (compound 2), relative to quinine sulfate, was determined to be 0.64 (FIGS. 5A-F). […] Apparent KD values measured in this manner are consistent with those obtained by SPR (Table 6); that they are not identical to SPR-measured values likely results from the differing formats of the two methods. […]

Row | SMILES | Residence time (t1/2) for compound binding to RNA ([1]; (CUG)10) [min] | Off-rates (koff) ([1]; SPR, (CUG)10) [s⁻¹] | On-rates (kon) ([1]; SPR, (CUG)10) [M⁻¹ s⁻¹] | apparent KD ([1]; SPR, (CUG)10) | sequence selectivity ([1]; SPR, CUG repeats versus other RNAs) | Residence time (t1/2) for compound binding to RNA [2] [min] | Off-rates (koff) ([2]; SPR) [s⁻¹] | On-rates (kon) ([2]; SPR) [M⁻¹ s⁻¹] | cell membrane penetration / localization (mouse C2C12 myoblasts) | improvement of Clcn1 splicing (HSA^LR transgenic mice) | Residence time (t1/2) for compound binding to RNA [3] [min] | Off-rates (koff) ([3]; SPR) [s⁻¹] | On-rates (kon) ([3]; SPR) [M⁻¹ s⁻¹] | Residence time (t1/2) for compound binding to RNA [4] [min] | Off-rates (koff) ([4]; SPR) [s⁻¹] | On-rates (kon) ([4]; SPR) [M⁻¹ s⁻¹] | Residence time (t1/2) for compound binding to RNA [5] [min] | Off-rates (koff) ([5]; SPR) [s⁻¹] | On-rates (kon) ([5]; SPR) [M⁻¹ s⁻¹] | apparent KD ((CUG)10 RNA)
1 | CCc1nc2cc3ccccc3cc2cc1C(=O)N[C@@H](CCCCN)C(=O)N[C@@H](C/C=C/C[C@H](NC(=O)[C@H](CCCCN)NC(=O)c1cc2cc3ccccc3cc2nc1CC)C(=O)N1CCC[C@H]1C(=O)NCCCN)C(=O)N1CCC[C@H]1C(=O)NCCCN [Compound 9] | 4.0527 | 0.00285 | 24200 | reduced affinity | no selectivity for CUG or CCUG repeats relative to duplex CUG-CAG or HIV-1 FSS RNAs | 5.775 | 0.002 | 32300 | significantly less able to enter cells than compounds 4, 5, or 11 | not | 6.2097 | 0.00186 | 24300 | 3.3575 | 0.00344 | 15700 | 4.262 | 0.00271 | 19900 | –
2 | C=CC[C@H](NC(=O)[C@@H]1CCCN1C(=O)c1cc2cc3ccccc3cc2nc1CC)C(=O)N[C@@H](CCCCN)C(=O)NCCCN [Compound 3] | – | – | – | no measurable affinity; also recorded: complete lack of binding | – | – | – | – | – | – | – | – | – | – | – | – | – | – | – | No binding
